Experimental findings from patent publication US10703755B2, “Substituted purine derivative” (SUMITOMO DAINIPPON PHARMA CO., LTD., priority 2016, dated 2020) are described below.

In general, pIC50 refers to −log10 of the IC50, conventionally taken in molar units.

Each structure is given as a SMILES string. pIC50: −log10 of the molar value.

In this test the target is human TLR7 (Homo sapiens (Human), UniProt Q9NYK1). Kind of test: Test for evaluating the inhibition of the activation of human TLR7 (SEAP reporter, TLR7/NF-κB/SEAPorter HEK293 cell). Type of test: cell-based. The settings on record: R-848 200 nmol/L; for inhibitory effect against TLR7 in the test for evaluating inhibition of the activation of TLR7: SEAP activity, result in words; for pIC50: SEAP reporter. The method in brief: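 The readout is secreted alkaline phosphatase under NF-κB response-element control in TLR7/NF-κB/SEAPorter HEK293 cells, which stably express full-length human TLR7. Cells were plated at 5×10^4 per well and grown overnight at 37° C, 5% CO2, in DMEM/10% FBS/blasticidin.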
Chain of human TLR7 (Q9NYK1 27-1049): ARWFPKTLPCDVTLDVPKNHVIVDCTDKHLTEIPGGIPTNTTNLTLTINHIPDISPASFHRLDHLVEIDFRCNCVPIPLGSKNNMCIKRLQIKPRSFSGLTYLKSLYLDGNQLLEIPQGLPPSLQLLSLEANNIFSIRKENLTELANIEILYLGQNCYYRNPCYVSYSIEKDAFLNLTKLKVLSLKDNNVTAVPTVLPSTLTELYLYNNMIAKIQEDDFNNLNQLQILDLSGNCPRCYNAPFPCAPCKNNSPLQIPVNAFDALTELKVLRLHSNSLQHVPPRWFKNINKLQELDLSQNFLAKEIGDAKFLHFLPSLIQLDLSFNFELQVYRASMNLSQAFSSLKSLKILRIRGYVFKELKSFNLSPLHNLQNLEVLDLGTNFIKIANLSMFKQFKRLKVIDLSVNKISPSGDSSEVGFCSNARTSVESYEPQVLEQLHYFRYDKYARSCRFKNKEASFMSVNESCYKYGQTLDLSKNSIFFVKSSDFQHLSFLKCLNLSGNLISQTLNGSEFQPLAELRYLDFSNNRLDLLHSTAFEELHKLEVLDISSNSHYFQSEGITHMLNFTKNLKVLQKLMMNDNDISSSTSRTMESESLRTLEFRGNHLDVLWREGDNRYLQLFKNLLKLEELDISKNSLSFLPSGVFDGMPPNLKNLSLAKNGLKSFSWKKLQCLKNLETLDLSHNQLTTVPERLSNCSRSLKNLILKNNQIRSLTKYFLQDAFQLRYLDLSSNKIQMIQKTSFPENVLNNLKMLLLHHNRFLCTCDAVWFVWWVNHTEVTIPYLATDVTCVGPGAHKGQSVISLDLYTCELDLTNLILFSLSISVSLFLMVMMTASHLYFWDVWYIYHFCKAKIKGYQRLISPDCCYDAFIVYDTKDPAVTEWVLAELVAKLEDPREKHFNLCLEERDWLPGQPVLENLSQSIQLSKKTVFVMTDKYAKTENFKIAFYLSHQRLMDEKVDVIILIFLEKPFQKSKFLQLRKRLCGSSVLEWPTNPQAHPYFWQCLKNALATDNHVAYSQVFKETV

For the molecule `COc1cncc(-c2nc3c(C)nc(OC)nc3n2Cc2ccc(C3CN4CCC3CC4)cc2F)c1` (stereo not shown) [Example 302], the “inhibitory effect against TLR7 in the test for evaluating inhibition of the activation of TLR7” value (shortened to “inhibitory effect against TLR7”) is listed as “potent inhibitory effect against TLR7” and the pIC50 is 7.17.
For the molecule `COc1nc(C)c2nc(-c3cccnc3)n(Cc3ccc(C4CN5CCC4CC5)cc3F)c2n1` (stereo not shown) [Example 303, 9-[4-(1-azabicyclo[2.2.2]oct-3-yl)-2-fluorobenzyl]-2-methoxy-6-methyl-8-(pyridin-3-yl)-9H-purine], the “inhibitory effect against TLR7” value is recorded as “potent inhibitory effect against TLR7” and the pIC50 was 8.15.
For `COc1nc(C)c2nc(-c3cnccc3C)n(Cc3ccc(C4CN5CCC4CC5)cc3F)c2n1` (stereo not shown) [Example 304, 9-[4-(1-azabicyclo[2.2.2]oct-3-yl)-2-fluorobenzyl]-2-methoxy-6-methyl-8-(4-methylpyridin-3-yl)-9H-purine], in that order: “potent inhibitory effect against TLR7” and 8.40.
Consider `COc1nc(C)c2nc(-c3cncc(C)c3)n(Cc3ccc(C4CN5CCC4CC5)cc3F)c2n1` (stereo not shown) [Example 305, 9-[4-(1-azabicyclo[2.2.2]oct-3-yl)-2-fluorobenzyl]-2-methoxy-6-methyl-8-(5-methylpyridin-3-yl)-9H-purine], for which the “inhibitory effect against TLR7” value is “potent inhibitory effect against TLR7” and the pIC50 was 8.30.
In the same order, the values of `COc1nc(C)c2nc(-c3ccc(C)nc3)n(Cc3ccc(C4CN5CCC4CC5)cc3F)c2n1` (stereo not shown) [Example 306] are “potent inhibitory effect against TLR7” and 7.40.
For `CCOc1nc(C)c2nc(-c3cncc(F)c3)n(Cc3ccc(C4CN(C)CCO4)cc3F)c2n1` (stereo not shown) [Example 307], in that order: “potent inhibitory effect against TLR7” and 7.24.
Turning to `COc1nc(C)c2nc(-c3cncc(C#N)c3)n(Cc3ccc(CN4C[C@@H]5C[C@H]4CN5C)cc3F)c2n1` [Example 308, 5-[9-(2-fluoro-4-{[(1S,4S)-5-methyl-2,5-diazabicyclo[2.2.1]hept-2-yl]methyl}benzyl)-2-methoxy-6-methyl-9H-purin-8-yl]pyridine-3-carbonitrile], the “inhibitory effect against TLR7” value is “potent inhibitory effect against TLR7” and the pIC50 is 7.57.
On to `CCN1C[C@@H]2C[C@H]1CN2Cc1ccc(Cn2c(-c3cncc(C#N)c3)nc3c(C)nc(OC)nc32)c(F)c1` [Example 309, 5-[9-(4-{[(1S,4S)-5-ethyl-2,5-diazabicyclo[2.2.1]hept-2-yl]methyl}-2-fluorobenzyl)-2-methoxy-6-methyl-9H-purin-8-yl]pyridine-3-carbonitrile], for which the “inhibitory effect against TLR7” value is listed as “potent inhibitory effect against TLR7” and the pIC50 was 7.70.
For `COc1nc(C)c2nc(-c3cccnc3)n(Cc3ccc(CN4C[C@@H]5C[C@H]4CN5C)cc3F)c2n1` [Example 310, 9-(2-fluoro-4-{[(1S,4S)-5-methyl-2,5-diazabicyclo[2.2.1]hept-2-yl]methyl}benzyl)-2-methoxy-6-methyl-8-(pyridin-3-yl)-9H-purine], in that order: “potent inhibitory effect against TLR7” and 7.55.
In the case of `CCOc1nc(C)c2nc(-c3cncc(C#N)c3)n(Cc3ccc(CN4C[C@@H]5C[C@H]4CN5C)cc3F)c2n1` [Example 311, 5-[2-ethoxy-9-(2-fluoro-4-{[(1S,4S)-5-methyl-2,5-diazabicyclo[2.2.1]hept-2-yl]methyl}benzyl)-6-methyl-9H-purin-8-yl]pyridine-3-carbonitrile], the “inhibitory effect against TLR7” value is “potent inhibitory effect against TLR7” and the pIC50 was 7.96.
Take `CCOc1nc(C)c2nc(-c3cncnc3)n(Cc3ccc(CN4C[C@@H]5C[C@H]4CN5C)cc3F)c2n1` [Example 312, 2-ethoxy-9-(2-fluoro-4-{[(1S,4S)-5-methyl-2,5-diazabicyclo[2.2.1]hept-2-yl]methyl}benzyl)-6-methyl-8-(pyrimidin-5-yl)-9H-purine]: the “inhibitory effect against TLR7” value is “potent inhibitory effect against TLR7” and the pIC50 was 7.60.
`CCOc1nc(C)c2nc(-c3cncc(F)c3)n(Cc3ccc(CN4C[C@@H]5C[C@H]4CN5C)cc3F)c2n1` [Example 313, 2-ethoxy-9-(2-fluoro-4-{[(1S,4S)-5-methyl-2,5-diazabicyclo[2.2.1]hept-2-yl]methyl}benzyl)-8-(5-fluoropyridin-3-yl)-6-methyl-9H-purine]: the “inhibitory effect against TLR7” value was “potent inhibitory effect against TLR7” and the pIC50 was 8.10.
For `COc1nc(C)c2nc(-c3cncc(F)c3)n(Cc3ccc(C4CN5CCC4CC5)cc3F)c2n1` (stereo not shown) [Example 314], the “inhibitory effect against TLR7” value is “potent inhibitory effect against TLR7” and the pIC50 was 8.10.
In turn, `CCOc1nc(C)c2nc(-c3cncc(F)c3)n(Cc3cc(OC)c(C4CN5CCC4CC5)cc3F)c2n1` (stereo not shown) [Example 317] had a pIC50 of 5.79.
As for `COc1nc(C)c2nc(-c3cncc(C#N)c3)n(Cc3ccc(O[C@@H]4CN5CCC4CC5)cc3F)c2n1` [Example 322, 5-(9-{4-[(3S)-1-azabicyclo[2.2.2]oct-3-yloxy]-2-fluorobenzyl}-2-methoxy-6-methyl-9H-purin-8-yl)pyridine-3-carbonitrile], the “inhibitory effect against TLR7” value is recorded as “potent inhibitory effect against TLR7” and the pIC50 is 7.89.
For `COc1nc(C)c2nc(-c3cncnc3)n(Cc3ccc(O[C@@H]4CN5CCC4CC5)cc3F)c2n1` [Example 323, 9-{4-[(3S)-1-azabicyclo[2.2.2]oct-3-yloxy]-2-fluorobenzyl}-2-methoxy-6-methyl-8-(pyrimidin-5-yl)-9H-purine], in that order: “potent inhibitory effect against TLR7” and 7.15.
`CCOc1nc(C)c2nc(-c3cncc(F)c3)n(Cc3ccc(Br)cc3OC)c2n1` [Example 325] had a pIC50 of 5.82.
`COc1nc(C)c2nc(-c3cncc(F)c3)n(Cc3cc(Br)ccc3F)c2n1` [Example 326] had a pIC50 of 6.41. Compared with the last molecule, the pIC50 is 0.59 log units higher.
Turning to `CCOc1nc(C)c2nc(-c3cncc(F)c3)n(Cc3ccc(C4CN5CCC4CC5)nc3OC)c2n1` (stereo not shown) [Example 327], the “inhibitory effect against TLR7” value is given as “potent inhibitory effect against TLR7” and the pIC50 was 7.64.
Molecule `COc1nc(C)c2nc(-c3cnc(C)nc3)n(Cc3ccc(OC4CN5CCC4CC5)cc3F)c2n1` (stereo not shown) [Example 329] had a pIC50 of 6.92.
Take `CCOc1nc(C)c2nc(-c3cncc(F)c3)n(Cc3cnc(C4CN5CCC4CC5)cc3C)c2n1` (stereo not shown) [Example 330]: the pIC50 is 6.67. Against the preceding molecule, the pIC50 is 0.25 log units lower.
As for `COc1nc(C)c2nc(-c3cncc(F)c3)n(Cc3ccc(Br)c(F)c3)c2n1` [Example 332], the pIC50 was 5.19.
As for `COc1nc(C)c2nc(-c3cncc(F)c3)n(Cc3ccc(Br)cc3F)c2n1` [Example 337], the pIC50 was 5.87.
As for `CCOc1nc(C)c2nc(-c3cncc(F)c3)n(Cc3cnc(Cl)c(F)c3)c2n1` [Example 338], the negative-log IC50 (pIC50) was 6.18.
Regarding `CCOc1nc(C)c2nc(-c3cncc(F)c3)n(Cc3ccc(Br)cc3C#N)c2n1` [Example 339], the pIC50 is 6.80.
With `COc1nc(C)c2nc(-c3cncc(C#N)c3)n(Cc3ccc(C4CN5CCC4CC5)cc3F)c2n1` (stereo not shown) [Example 340], the “inhibitory effect against TLR7” value was “potent inhibitory effect against TLR7” and the pIC50 is 7.59.
As for `COc1nc(C)c2nc(-c3cncc(F)c3)n(Cc3ccc(OS(C)(=O)=O)cc3F)c2n1` [Example 342], the pIC50 was 6.09.
`COc1nc(C)c2nc(-c3cncc(C#N)c3)n(Cc3ccc(C4CCNCC4)cc3F)c2n1` [Example 343]: the “inhibitory effect against TLR7” value is “potent inhibitory effect against TLR7” and the pIC50 was 7.17.
Turning to `COc1nc(C)c2nc(-c3cccc(C#N)c3)n(Cc3ccc(C4CN5CCC4CC5)cc3F)c2n1` (stereo not shown) [Example 344, 3-{9-[4-(1-azabicyclo[2.2.2]oct-3-yl)-2-fluorobenzyl]-2-methoxy-6-methyl-9H-purin-8-yl}benzonitrile], the “inhibitory effect against TLR7” value is listed as “potent inhibitory effect against TLR7” and the pIC50 is 7.92.
For `COc1nc(C)c2nc(-c3cccnc3)n(Cc3ccc(C4CCNCC4)cc3F)c2n1` [Example 345], the “inhibitory effect against TLR7” value is recorded as “potent inhibitory effect against TLR7” and the pIC50 was 7.44.
For `COc1nc(C)c2nc(-c3cncnc3)n(Cc3ccc(C4CN5CCC4CC5)cc3F)c2n1` (stereo not shown) [Example 346], the “inhibitory effect against TLR7” value is “potent inhibitory effect against TLR7” and the pIC50 was 7.72.
In the same order, the values of `COc1nc(C)c2nc(-c3ccncc3)n(Cc3ccc(C4CN5CCC4CC5)cc3F)c2n1` (stereo not shown) [Example 347] are “potent inhibitory effect against TLR7” and 7.46.
Consider `COc1nc(C)c2nc(-c3cnc(C)nc3)n(Cc3ccc(C4CN5CCC4CC5)cc3F)c2n1` (stereo not shown) [Example 348], for which the “inhibitory effect against TLR7” value is “potent inhibitory effect against TLR7” and the negative-log IC50 (pIC50) was 7.04.
With `CCOc1nc(C)c2nc(-c3cncc(F)c3)n(Cc3ccc(C4=CN5CCC4CC5)cn3)c2n1` [Example 352, 9-{[5-(1-Azabicyclo[2.2.2]oct-2-en-3-yl)pyridin-2-yl]methyl}-2-ethoxy-8-(5-fluoropyridin-3-yl)-6-methyl-9H-purine], the pIC50 was 6.30.
Take `COc1nc(C)c2nc(-c3cncc(F)c3)n(Cc3ccc(C4=CN5CCC4CC5)cn3)c2n1` [Example 353]: the pIC50 is 6.30.
